Experimental data taken from the supplement of paper PMC10307832.

What was measured:
Experiment in all cases: relative viability (nuclei count vs DMSO), 5 days (fraction); higher = more cells survive
Crizotinib + Dasatinib = compound: C[C@@H](Oc1cc(-c2cnn(C3CCNCC3)c2)cnc1N)c1c(Cl)ccc(F)c1Cl [Crizotinib] + Cc1nc(Nc2ncc(C(=O)Nc3c(C)cccc3Cl)s2)cc(N2CCN(CCO)CC2)n1 [Dasatinib] (partner 0.075 µM)
Method in brief: (§1)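 Cells from lung cancer lines were seeded into 1536-well plates and, one day later, dosed by pin tool. Treatments were either a single drug or a fixed dose of an anchor drug with five library-drug doses (not always all listed) in √10 steps. After 5 days, nuclei were stained in a one-step fixation (final 0.05% Triton X-100, 1% formaldehyde, 1 ug/ml Hoechst) and counted on 4× images, and relative viability is the treated-to-vehicle nuclei ratio, as the median of duplicate plates.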

Olaparib + Dasatinib = compound: O=C(c1cc(Cc2n[nH]c(=O)c3ccccc23)ccc1F)N1CCN(C(=O)C2CC2)CC1 [Olaparib] + Cc1nc(Nc2ncc(C(=O)Nc3c(C)cccc3Cl)s2)cc(N2CCN(CCO)CC2)n1 [Dasatinib] (partner 0.075 µM)
Method in brief: as §1

Olaparib + Palbociclib = compound: O=C(c1cc(Cc2n[nH]c(=O)c3ccccc23)ccc1F)N1CCN(C(=O)C2CC2)CC1 [Olaparib] + CC(=O)c1c(C)c2cnc(Nc3ccc(N4CCNCC4)cn3)nc2n(C2CCCC2)c1=O [Palbociclib] (partner 0.5 µM)
Method in brief: as §1

Olaparib + Luminespib = compound: O=C(c1cc(Cc2n[nH]c(=O)c3ccccc23)ccc1F)N1CCN(C(=O)C2CC2)CC1 [Olaparib] + CCNC(=O)c1noc(-c2cc(C(C)C)c(O)cc2O)c1-c1ccc(CN2CCOCC2)cc1 [Luminespib] (partner 0.01 µM)
Method in brief: as §1

Cell Line	relative viability (Crizotinib + Dasatinib; first compound 0.01 µM)	relative viability (Crizotinib + Dasatinib; first compound 0.03162 µM)	relative viability (Crizotinib + Dasatinib; first compound 0.1 µM)	relative viability (Crizotinib + Dasatinib; first compound 0.3162 µM)	relative viability (Crizotinib + Dasatinib; first compound 1 µM)	relative viability (Olaparib + Dasatinib; first compound 0.08 µM)	relative viability (Olaparib + Dasatinib; first compound 0.253 µM)	relative viability (Olaparib + Dasatinib; first compound 2.53 µM)	relative viability (Olaparib + Dasatinib; first compound 8 µM)	relative viability (Olaparib + Palbociclib; first compound 0.08 µM)	relative viability (Olaparib + Palbociclib; first compound 0.253 µM)	relative viability (Olaparib + Palbociclib; first compound 2.53 µM)	relative viability (Olaparib + Palbociclib; first compound 8 µM)	relative viability (Olaparib + Luminespib; first compound 0.08 µM)	relative viability (Olaparib + Luminespib; first compound 0.253 µM)	relative viability (Olaparib + Luminespib; first compound 2.53 µM)	relative viability (Olaparib + Luminespib; first compound 8 µM)
NCI-H838	0.208	0.303	0.313	0.248	0.261	0.303	0.259	0.272	0.256	0.269	0.196	0.198	0.247	0.332	0.218	0.229	0.219
NCI-H1355	0.736	0.823	0.733	0.598	0.65	0.759	0.731	0.724	0.703	0.364	0.422	0.407	0.414	0.648	0.694	0.52	0.572
NCI-H1395	0.388	0.376	0.409	0.391	0.358	0.465	0.358	0.39	0.419	0.649	0.611	0.6	0.499	0.633	0.533	0.62	0.447
NCI-H1437	0.376	0.435	0.403	0.301	0.396	0.548	0.399	0.441	0.39	0.32	0.303	0.327	0.353	1.26	1.08	1.06	0.809
NCI-H1650	0.273	0.299	0.311	0.362	0.299	0.313	0.342	0.287	0.285	0.478	0.324	0.331	0.335	0.245	0.188	0.2	0.195
NCI-H1651	0.374	0.389	0.456	0.403	0.314	0.423	0.311	0.31	0.218	0.547	0.494	0.493	0.384	0.798	0.605	0.431	0.216
NCI-H1666	0.808	0.797	0.741	0.77	0.863	0.883	0.68	0.693	0.651	0.669	0.717	0.677	0.609	1.1	0.879	0.889	0.697
NCI-H1734	0.49	0.455	0.397		0.555	0.458	0.399	0.421	0.326	0.337	0.327	0.29	0.304	0.212	0.205	0.185	0.183
NCI-H1755	0.407	0.46	0.454	0.273	0.413	0.477	0.399	0.44	0.404	0.415	0.436	0.445	0.436	0.743	0.411	0.41	0.418
NCI-H1792	0.706	0.829	0.733		0.936	0.816	0.689	0.841	0.62	0.694	0.576	0.63	0.617	0.484	0.359	0.409	0.425
NCI-H1915	0.307	0.338	0.315		0.317	0.315	0.294	0.28	0.252	0.529	0.469	0.405	0.294	0.685	0.575	0.408	0.387
NCI-H1944	0.193	0.22	0.207	0.179	0.203	0.177	0.215	0.178	0.149	0.34	0.335	0.316	0.271	0.741	0.625	0.534	0.534
NCI-H1975	0.347	0.381	0.349	0.387	0.43	0.396	0.346	0.381	0.364	0.593	0.607	0.569	0.502	0.169	0.174	0.258	0.234
NCI-H1993		0.483	0.488	0.49	0.511	0.725	0.556	0.656	0.716	0.49	0.653	0.83	0.735	0.87	0.842	0.78	1.04
NCI-H2009	0.265	0.296	0.253	0.249	0.275	0.42	0.279	0.304	0.272	0.233	0.205	0.194	0.17	1.13	0.966	0.893	0.701
NCI-H2023	0.532	0.537	0.449	0.258	0.389	0.672	0.489	0.528	0.467	0.413	0.34	0.397	0.292	0.647	0.724	0.629	0.379
